{"source": "patent US20180214467A1", "about": "“GLP-1 SECRETAGOGUE” (EDUCATIONAL FOUNDATION JICHI MEDICAL UNIVERSITY, priority 2015, published 2018)", "key": {"C57BL/6J male mice [1]": {"test_system": "C57BL/6J male mice", "experiment": "Portal vein active GLP-1 and total GIP 30 minutes after oral administration of monosaccharides to fasting mice (Example 2)", "format": "in vivo", "conditions": "30 minutes after administration, vs saline", "protocol": "To the C57BL/6J male mice (9-11 weeks old) having fasted for 16 hours from 18:00 on the day before the experiment, D-psicose at 0.3 g/kg or 1 g/kg, D-tagatose or D-glucose each at 1 g/kg, or saline was orally administered into each stomach at 10:00 AM. The dose of the oral administration was 10 ml/kg. The blood was collected from the portal vein under isoflurane anesthesia 30 minutes after the administration. Note that an anticoagulant (heparin (final concentration: 50 IU/ml)) and peptide degradation suppressors (aprotinin (final concentration: 500 KIU/ml) and vildagliptin (final concentration: 10 μM)) had been added into the sampling syringes in advance. The collected blood was cooled and centrifuged. The blood plasma was stored at −80° C. until the analysis. The quantitative analyses of active GLP-1 and total GIP were conducted using the above-described kits. In addition, as the statistical analyses, a one-way analysis of variance (unpaired) was performed, followed by Dunnett's test using saline as the control. […] Note that, in FIG. 3, * indicates p<0.05, and ** indicates p<0.01. Moreover, numerical values in bar graphs in the figure each indicate the number of experiments."}, "C57BL/6J male mice [2]": {"test_system": "C57BL/6J male mice", "experiment": "Amount of diet ingested after oral D-psicose or D-tagatose (Example 4)", "format": "in vivo", "conditions": "1 g/kg oral, vs control group (saline)", "protocol": "The C57BL/6J male mice (7-11 weeks old) were preliminarily grown in separate cages for one week or more, and habituated to the growth and experimental environment through training by the experimenter. After the fasting for 16 hours from 18:00 on the day before the experiment, saline, D-psicose at 1 g/kg, or D-tagatose at 1 g/kg was orally administered into each stomach from 9:50. The doses were each 10 ml/kg. From 10:00, the mice were fed with Diet CE-2 ad lib. After 1 hour, 2 hours, and 6 hours, the amounts of the diet ingested were measured over time. Each amount of the diet ingested was calculated as the amount of energy ingested (kcal), given that 1 g of D-tagatose orally administered into the stomach is 2 kcal, and 1 g of Diet CE-2 is 3.45 kcal. As the statistical analyses, a one-way analysis of variance (unpaired) was performed on the results at the respective time points, and multiple comparisons were performed by Tukey's test among all the groups. […] Note that, in FIG. 5, * indicates p<0.05, and ** indicates p<0.01."}, "C57BL/6J male mice [3]": {"test_system": "C57BL/6J male mice", "experiment": "Portal vein active GLP-1, total GLP-1 and total GIP over time after oral administration to fasting mice (Example 1)", "format": "in vivo", "conditions": "1 g/kg oral", "protocol": "As the experimental animal, C57BL/6J male mice (9-11 weeks old) were used. To the mice having fasted for 16 hours from 18:00 on the day before the experiment, D-psicose at 1 g/kg was orally administered into each stomach at 10:00 AM. The dose of the oral administration was 10 ml/kg. Before the D-psicose administration and 30 minutes and 60 minutes after the administration, the blood was collected from the portal vein under isoflurane anesthesia. Note that an anticoagulant (heparin (final concentration: 50 IU/ml)) and peptide degradation suppressors (aprotinin (final concentration: 500 KIU/ml) and vildagliptin (final concentration: 10 μM)) had been added into the sampling syringes in advance. The collected blood was cooled, centrifuged, and stored at −80° C. until the resulting blood plasma was analyzed. The quantitative analyses of active GLP-1, total GLP-1, and total GIP were conducted using ELISA kits (manufactured by Millipore Corporation. EGLP-35K, EZGLPIT-36K, and EZRMGIP-55K, respectively). In addition, as the statistical analyses, a one-way analysis of variance (paired) was performed, followed by Dunnett's test using a value before the D-psicose administration (0 min) as the control. […] Note that, in FIG. 2, * indicates p<0.05, and ** indicates p<0.01. Moreover, numerical values in bar graphs in FIG. 2 each indicate the number of experiments."}, "C57BL/6J male mice [4]": {"test_system": "C57BL/6J male mice", "experiment": "Amount of diet ingested after oral D-psicose with or without GLP-1 receptor inhibitor Ex-9 (Example 3)", "format": "in vivo", "conditions": "vs control group", "protocol": "The C57BL/6J male mice (9-11 weeks old) were preliminarily grown in separate cages for one week or more, and habituated to the growth and experimental environment through training by the experimenter. After the fasting for 16 hours from 18:00 on the day before the experiment, saline or a GLP-1 receptor inhibitor (Exendin-9, Ex-9, 200 nmol/kg) was intraperitoneally administered from 9:45. Immediately thereafter, saline or D-psicose at 1 g/kg was orally administered into each stomach. The doses of the intraperitoneal administration and the oral administration were respectively 5 ml/kg and 10 ml/kg. From 10:00, the mice were fed with Diet CE-2 (common mouse diet with well-balanced nutrients, manufactured by CLEA Japan, Inc.) ad lib. After 0.5 hours, 1 hour, 2 hours, 3 hours, and 6 hours, the amounts of the diet ingested were measured over time. Each amount of the diet ingested was calculated as the amount of energy ingested (kcal), given that 1 g of D-psicose orally administered into the stomach is 0 kcal, and 1 g of Diet CE-2 is 3.45 kcal. As the statistical analyses, a one-way analysis of variance (unpaired) was performed on the results at the respective time points, and multiple comparisons were performed by Tukey's test among all the groups. […] Note that, in FIG. 4, * indicates p<0.05, and ** indicates p<0.01."}, "healthy subjects": {"test_system": "healthy subjects", "experiment": "Total GLP-1 blood concentration AUC after single ingestion by healthy subjects (Example 6)", "format": "in vivo", "conditions": "humans, fasting", "protocol": "After setting a termination period for one week or more in advance, 200 ml of water (control beverage) or D-psicose at 5 g/200 ml (D-psicose: 0.07 to 0.11 g/kg body weight), 10 g/200 ml (D-psicose: 0.14 to 0.22 g/kg body weight), or 15 g/200 ml (test beverage) (D-psicose: 0.21 to 0.33 g/kg body weight) each at a single dose was randomly ingested by six healthy subjects (three men and three women. The body weights: 53.3±7.4 kg). In the night before the day when the control beverage or the test beverage was ingested (test day), a designated dinner was ingested. After 21:00 in the night until 9:00 AM on the test day, the ingestion of foods and beverages excluding water and tea beverages was prohibited. As the designated diet, any menu (curry, chicken and egg bowl, beef bowl, Chinese rice bowl) was selectable which hardly contain substances such as dietary fibers, lactic acid bacteria, and fermentative saccharides utilizable by intestinal bacteria for the fermentations. […] The total GLP-1 amount in the centrifuged blood plasma was measured using the product manufactured by Merck KGaA: “Multi Species GLP-1 Total ELISA.” Note that the subjects were made to keep regular lifestyles and avoid excessive exercising, eating, and drinking during the test period of approximately one month, and spend a time quietly in house during the test."}, "Sprague Dawley rat": {"test_system": "Sprague Dawley rat", "experiment": "Blood glucose and total GLP-1 over time after oral administration to fasted rats (Example 5)", "format": "in vivo", "conditions": "2 g/kg body weight oral, fasted SD rats, 0 to 240 minutes", "protocol": "Before a sample was administered (0 minutes), the blood was collected from the tail vein of each Sprague Dawley rat (8 to 9 weeks old male) having fasted overnight. Using a feeding tube, each solution of deionized water (control group), D-psicose, an indigestible dextrin (DE10), and a dextrin (the product manufactured by Matsutani Chemical Industry Co., Ltd.: “Pinedex #2” (DE10)) was orally administered at 2 g/kg body weight (10 mL/kg body weight). Then, the blood was collected from the tail vein after 15 minutes, 30 minutes, 60 minutes, 90 minutes, 120 minutes, 150 minutes, 180 minutes, 210 minutes, and 240 minutes.\nThe blood was collected into a tube to which a DPP-IV inhibitor (manufactured by Millipore Corporation), aprotinin (manufactured by Wako Pure Chemical Industries, Ltd.), and heparin (manufactured by Nacalai Tesque, Inc.) had been added in advance. The blood plasma was collected by centrifugation, and cryopreserved at −80° C. The total GLP-1 concentration in the resulting blood plasma was measured with a commercially available ELISA kit (Multi Species GLP-1 Total ELISA manufactured by Millipore Corporation). The glucose concentration in the blood plasma was measured with Glucose CII-Test Wako (manufactured by Wako Pure Chemical Industries, Ltd.)."}, "[5]": {"test_system": "murine large intestine-derived, Glucagon-like peptide-1 (GLP-1) producing cell line GLUTag", "experiment": "GLP-1 secretion test in GLUTag cells (preliminary test)", "format": "cell-based", "conditions": "10 mM, 20 mM and 40 mM solutions, 60 minutes", "protocol": "A murine large intestine-derived, Glucagon-like peptide-1 (GLP-1) producing cell line GLUTag was cultured in 10%-FBS containing Dulbecco's modified Eagle's medium at 37° C. in the presence of 5% CO2. The GLUTag cells were cultured in a 48-well plate for 2 or 3 days until subconfluence. Before each sample (D-psicose or an indigestible dextrin) was added, the wells were washed with a Hepes buffer (140 mM NaCl, 4.5 mM KCl, 20 mM Hepes, 1.2 mM CaCl2, 1.2 mM MgCl2, 10 mM D-glucose, 0.1% BSA, pH: 7.4). Then, 80 μl of a solution of the sample dissolved in the same buffer was added to the wells, and incubated at 37° C. for 60 minutes. After the supernatant was collected, the cells were precipitated by centrifugation (800×g, 5 minutes, 4° C.), and 70 μl of the supernatant was cryopreserved. The total GLP-1 in this supernatant was measured with commercially available “Enzyme immuno assay kit” (manufactured by Yanaihara Institute Inc.)."}, "[6]": {"conditions": "30 to 60 minutes after administration vs 0 min"}}, "data": [{"compound": "O=C[C@H](O)[C@@H](O)[C@H](O)[C@H](O)CO", "note": "[D-glucose, reference compound]", "values": [{"measurement": "active GLP-1 concentration in the portal veins", "setting": "C57BL/6J male mice [1]; 1 g/kg oral", "result": "did not change at all"}, {"measurement": "total GIP in the portal veins", "setting": "C57BL/6J male mice [1]; 1 g/kg oral", "result": "significantly increased the GIP concentration"}]}, {"compound": "O=C(CO)[C@H](O)[C@H](O)[C@H](O)CO", "note": "[D-psicose]", "values": [{"measurement": "active GLP-1 concentration in the portal veins", "setting": "C57BL/6J male mice [1]; 0.3 g/kg oral", "result": "tended to increase"}, {"measurement": "total GIP in the portal veins", "setting": "C57BL/6J male mice [1]; 0.3 g/kg oral", "result": "only the D-glucose administration group significantly increased the GIP concentration"}, {"measurement": "active GLP-1 concentration in the portal veins", "setting": "C57BL/6J male mice [1]; 1 g/kg oral", "result": "significantly increased"}, {"measurement": "total GIP in the portal veins", "setting": "C57BL/6J male mice [1]; 1 g/kg oral", "result": "only the D-glucose administration group significantly increased the GIP concentration"}, {"measurement": "amount of the diet ingested", "setting": "C57BL/6J male mice [2]; 1 hour to 6 hours after administration", "result": "significantly smaller"}, {"measurement": "active GLP-1 concentration in the portal veins", "setting": "C57BL/6J male mice [3]; [6]", "result": "increased"}, {"measurement": "total GLP-1 concentration in the portal veins", "setting": "C57BL/6J male mice [3]; [6]", "result": "increased"}, {"measurement": "GIP secretion (total GIP concentration in the portal veins)", "setting": "C57BL/6J male mice [3]; for 60 minutes after administration", "result": "did not influence the GIP secretion"}, {"measurement": "amount of the diet ingested", "setting": "C57BL/6J male mice [4]; Ex-9 200 nmol/kg i.p. + D-psicose 1 g/kg oral, 30 minutes after administration", "result": "significantly smaller"}, {"measurement": "amount of the diet ingested", "setting": "C57BL/6J male mice [4]; Ex-9 200 nmol/kg i.p. + D-psicose 1 g/kg oral, after 1 hour (to 6 hours) from administration", "result": "not significantly different"}, {"measurement": "amount of the diet ingested", "setting": "C57BL/6J male mice [4]; saline i.p. + D-psicose 1 g/kg oral, 30 minutes to 6 hours after administration", "result": "significantly decreased"}, {"measurement": "area under total GLP-1 blood concentration-time curve (AUC)", "setting": "healthy subjects; single dose 5 g, 10 g or 15 g/200 ml, 15 to 180 minutes", "result": "increased in a manner dependent on the amount of D-psicose ingested"}, {"measurement": "single dose at which the effect of promoting the amount of total GLP-1 secreted into the blood was obtained", "setting": "healthy subjects; single oral ingestion", "result": "at least 0.07 g/kg body weight"}, {"measurement": "blood sugar level", "setting": "Sprague Dawley rat", "result": "small variation"}, {"measurement": "total GLP-1 concentration in the blood", "setting": "Sprague Dawley rat", "result": "greatly increased"}, {"measurement": "GLP-1 secretion (total GLP-1 in supernatant)", "setting": "[5]", "result": "merely tended to exhibit slight secretion promotion"}]}, {"compound": "O=C(CO)[C@@H](O)[C@@H](O)[C@H](O)CO", "note": "[D-tagatose, reference compound]", "values": [{"measurement": "active GLP-1 concentration in the portal veins", "setting": "C57BL/6J male mice [1]; 1 g/kg oral", "result": "tended to increase"}, {"measurement": "total GIP in the portal veins", "setting": "C57BL/6J male mice [1]; 1 g/kg oral", "result": "only the D-glucose administration group significantly increased the GIP concentration"}, {"measurement": "amount of the diet ingested", "setting": "C57BL/6J male mice [2]; 1 hour after administration", "result": "significantly smaller"}, {"measurement": "amount of the diet ingested", "setting": "C57BL/6J male mice [2]; 2 hours and 6 hours after administration", "result": "almost the same"}]}, {"compound": "Exendin-9 [Ex9, reference compound]", "values": [{"measurement": "amount of the diet ingested", "setting": "C57BL/6J male mice [4]; Ex-9 200 nmol/kg i.p. + saline oral, all time zones", "result": "at the same levels"}]}]}
